Data published in patent publication US11046949B2, “Method and system for microbial lysis using periodates” (priority 2014, dated 2021).
Values joined by “and” are separate entries in the source; they are usually repeats but may differ in a detail not shown here. Equal entries are not always repeated. Where two headings read alike, the source gives them in different places.

Tests used:
[1] = tested on: Mycobacteria; experiment: Release of DNA from Mycobacteria by solvents, detergents, formic acid, borate; format: cell-based, Mycobacterium; settings: solvents to strip waxy cell wall component
Procedure: The hardy cell wall of Mycobacterium consists of a thick, waxy, hydrophobic, mycolate layer and a peptidoglycan layer held together by polysaccharide. […] Similarly, various detergents (e.g., SDS), formic acid, and borate were tested at elevated temperatures.

[2] = tested on: Bacillus subtilis vegetative cells; experiment: DNA release from B. subtilis by per-halogenated and oxidizing compounds, Acid-Hydrolysis HPLC Method; format: cell-based; settings: 70° C. 20 minutes; for % DNA release / AUC, Ade: 15 mM compound in BD buffer, samples 1-3; for % DNA release (Average) / AUC, Ade (Average): 15 mM compound, average of 3
[3] = tested on: C. difficile spores; format: cell-based, Clostridium difficile
[4] = tested on: B. anthracis Sterne Strain spores; format: cell-based, Bacillus anthracis; settings: Post-Periodate: BD2 buffer, 30 mM NPI, 70° C. 20 minutes, FIG. 15
[5] = tested on: M. catarrhalis; format: cell-based, Moraxella catarrhalis; settings: periodate +, BD2 buffer
[6] = tested on: attenuated M. tuberculosis (aMTB) spiked in saliva; format: cell-based, Mycobacterium tuberculosis
[7] = tested on: Mycobacterium smegmatis lysate proteins; experiment: M. smegmatis lysate treated with periodate, SDS-PAGE; settings: 7.5 and 15 mM periodate, 70° C. 15 minutes, FIG. 13
[8] = biological target: pancreatic ribonuclease A (RNase A) (Bos taurus, UniProt P61823); experiment: Inhibition of RNase A by pre-treatment with periodate, HeLa RNA integrity on agarose gel; settings: RNase A pre-incubated with 15 mM periodate, 70° C. 15 minutes, FIG. 14
[9] = tested on: Mycobacterium smegmatis; experiment: NPI-mediated release of DNA from M. smegmatis as a function of pH, Acid-Extraction HPLC Method
[10] = tested on: M. smegmatis; format: cell-based, Mycobacterium smegmatis; settings: BD2 buffer
[11] = tested on: C. albicans; format: cell-based, Candida albicans; settings: BD2 buffer
[12] = tested on: M. catarrhalis; format: cell-based, Moraxella catarrhalis; settings: BD2 buffer
[13] = tested on: B. thuringiensis; format: cell-based, Bacillus thuringiensis; settings: BD2 buffer
[14] = tested on: S. aureus; format: cell-based, Staphylococcus aureus; settings: periodate +, BD2 buffer
[15] = tested on: C. albicans; settings: periodate +, BD2 buffer
[16] = tested on: attenuated MTB H37Ra (aMTB) spiked in sputum; experiment: DNA isolated from aMTB-spiked sputum using swabs and periodate, RD4 rtPCR
[17] = tested on: M. smegmatis; format: cell-based, Mycobacterium smegmatis; settings: periodate +, BD2 buffer
[18] = tested on: B. thuringiensis; format: cell-based, Bacillus thuringiensis; settings: periodate +, BD2 buffer
[19] = tested on: K. pneumonia; format: cell-based, Klebsiella pneumonia; settings: BD2 buffer
[20] = tested on: K. pneumonia; format: cell-based, Klebsiella pneumonia; settings: periodate +, BD2 buffer
[21] = tested on: P. aeruginosa; format: cell-based, Pseudomonas aeruginosa; settings: BD2 buffer
[22] = tested on: Y. enterocolitica; format: cell-based, Yersinia enterocolitica; settings: periodate +, BD2 buffer
[23] = tested on: F. philomiragia; format: cell-based, Francisella philomiragia; settings: BD2 buffer
[24] = tested on: Y. enterocolitica; format: cell-based, Yersinia enterocolitica; settings: BD2 buffer
[25] = biological target: Pancreatic Ribonuclease A (Bos taurus, UniProt P61823); experiment: Pure pancreatic ribonuclease A treated with periodate, SDS-PAGE; settings: 15 mM periodate, 70° C. 15 minutes, FIG. 12
[26] = tested on: S. aureus; format: cell-based, Staphylococcus aureus; settings: BD2 buffer
[27] = tested on: C. botulinum Type B spores; format: cell-based, Clostridium botulinum; settings: Post-Periodate: BD2 buffer, 30 mM NPI, 70° C. 20 minutes, FIG. 16
[28] = tested on: M. tuberculosis in TB-positive sputum; experiment: TB-positive sputum, qPCR targeting RD4 MTBC region of difference; format: cell-based, Mycobacterium tuberculosis
[29] = tested on: P. aeruginosa; format: cell-based, Pseudomonas aeruginosa; settings: periodate +, BD2 buffer
[30] = tested on: F. philomiragia; format: cell-based, Francisella philomiragia; settings: periodate +, BD2 buffer

Sequence of pancreatic ribonuclease A (RNase A) (P61823 27-150): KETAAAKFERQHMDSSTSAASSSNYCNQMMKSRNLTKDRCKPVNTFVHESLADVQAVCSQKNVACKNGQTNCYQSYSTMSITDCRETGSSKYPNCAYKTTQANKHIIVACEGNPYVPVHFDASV
Sequence of Pancreatic Ribonuclease A (P61823 27-150): as above

SMILES: C[S+](C)[O-] [DMSO]
- release of DNA [1]: no increased release of DNA was observed

SMILES: [Na+].[O-][Cl+3]([O-])([O-])[O-] [Perchlorate, sodium perchlorate, reference compound]
- % DNA release [2]: 6.2% and 6.7% and 6.4%
- AUC, Ade [2]: 79 and 85 and 81
- % DNA release (Average) [2]: 6.4%
- AUC, Ade (Average) [2]: 81.7

SMILES: O=S(=O)([O-])OOS(=O)(=O)[O-].[Na+].[Na+] [Persulfate, sodium persulfate]
- % DNA release [2]: 15.9% and 14.7% and 14.3%
- AUC, Ade [2]: 202 and 187 and 182
- % DNA release (Average) [2]: 15.0%
- AUC, Ade (Average) [2]: 190.3
- % DNA release (Average) ([2]; listed as sodium persulfate): 15%

SMILES: O.O.O.O.[Na+].[O-]B1OO1 [Perborate, sodium perborate tetrahydrate, reference compound]
- % DNA release [2]: 5.5% and 6.3% and 6.4%
- AUC, Ade [2]: 70 and 80 and 82
- % DNA release (Average) [2]: 6.1%
- AUC, Ade (Average) [2]: 77.3

SMILES: [O-][I+3]([O-])([O-])O [Periodate, sodium (meta)periodate]
- spore viability by culture [3]: no C. botulinum or C. difficile spores were viable by culture
- spore viability by culture [4]: dramatically reduced the viability
- Ct values ([5]; 35° C. 20 minutes): 16.3
- Ct values ([5]; 70° C. 20 minutes): 12.7
- Ct values ([5]; 80° C. 20 minutes): 10.8
- Growth (up to 42 days) [6]: NEG
- Time to Positive [6]: >42 days
- growth on LJ medium [6]: no growth of any microorganism was observed
- protein bands in cell-free lysate [7]: some protein bands selectively decreased or disappeared altogether
- RNase A activity on HeLa ribosomal RNA [8]: ribosomal RNA was no longer degraded by RNase A
- percentage of total DNA released ([9]; 6 mM NPI in PAB buffer solutions pH 3.7-9.4, 70° C. 20 minutes): 37.4-59.4%
- increase of percentage of total DNA released vs no NPI ([9]; 6 mM NPI, 70° C. 20 minutes): approximately 9 fold
- % DNA Released ([10]; 35° C. 20 minutes): 49.7%
- % DNA Released ([10]; 70° C. 20 minutes): 85.2%
- % DNA Released ([10]; 80° C. 20 minutes): 80.6%
- % DNA Released ([11]; 35° C. 20 minutes): 105.4%
- % DNA Released ([11]; 70° C. 20 minutes): 155.3%
- % DNA Released ([11]; 80° C. 20 minutes): 156.4%
- % DNA Released ([12]; 35° C. 20 minutes): 77.1%
- % DNA Released ([12]; 70° C. 20 minutes): 143.6%
- % DNA Released ([12]; 80° C. 20 minutes): 140.5%
- % DNA Released ([13]; 35° C. 20 minutes): 42.1%
- % DNA Released ([13]; 70° C. 20 minutes): 103.5%
- % DNA Released ([13]; 80° C. 20 minutes): 107.7%
- Ct values ([14]; 35° C. 20 minutes): 15.5
- Ct values ([14]; 70° C. 20 minutes): 13.7
- Ct values ([14]; 80° C. 20 minutes): 15.0
- Ct values ([15]; 35° C. 20 minutes): 27.1
- Ct values ([15]; 70° C. 20 minutes): 15.2
- Ct values ([15]; 80° C. 20 minutes): 15.7
- Periodate efficiency (Ct Swab 6 (−) Ct average) ([16]; 1:10 dilution of DNA, Copan): 3.78
- Periodate efficiency (Ct Swab 6 (−) Ct average) ([16]; 1:10 dilution of DNA, Puritan): 5.72
- Ct value (1:10 dilution of DNA) Copan, Average ([16]; (+) periodate): 27.55
- Ct value (1:10 dilution of DNA) Puritan, Average ([16]; (+) periodate): 27.11
- Ct value (neat DNA) Copan, Average ([16]; (+) periodate): 24.02
- Ct value (neat DNA) Puritan, Average ([16]; (+) periodate): 23.69
- Ct value (1:10 dilution of DNA) Copan ([16]; (+) periodate 30 mM, Swabs 1-5): 26.49 and 28.11 and 29.12 and 33.99 and 26.47
- Ct value (1:10 dilution of DNA) Puritan ([16]; (+) periodate 30 mM, Swabs 1-5): 26.24 and 27.74 and 26.60 and 27.29 and 27.67
- Ct value (neat DNA) Copan ([16]; (+) periodate 30 mM, Swabs 1-5): 22.99 and 24.60 and 25.55 and 30 .09 and 22.93
- Ct value (neat DNA) Puritan ([16]; (+) periodate 30 mM, Swabs 1-5): 22.67 and 24.19 and 23.28 and 23.93 and 24.36
- Periodate efficiency (Ct Swab 6 (−) Ct average) ([16]; neat DNA, Copan): 3.73
- Periodate efficiency (Ct Swab 6 (−) Ct average) ([16]; neat DNA, Puritan): 3.93
- increase in the amount of aMTB-specific DNA recovered per swab ([16]; periodate included vs not included): > 10 fold
- Ct values ([17]; 35° C. 20 minutes): 22.8
- Ct values ([17]; 70° C. 20 minutes): 18.1
- Ct values ([17]; 80° C. 20 minutes): 17.9
- Ct values ([18]; 35° C. 20 minutes): 15.5
- Ct values ([18]; 70° C. 20 minutes): 10.3
- Ct values ([18]; 80° C. 20 minutes): 10.8
- % DNA Released ([19]; 35° C. 20 minutes): 49.0%
- % DNA Released ([19]; 70° C. 20 minutes): 119.2%
- % DNA Released ([19]; 80° C. 20 minutes): 124.4%
- Ct values ([20]; 35° C. 20 minutes): 24.3
- Ct values ([20]; 70° C. 20 minutes): 9.3
- Ct values ([20]; 80° C. 20 minutes): 9.6
- % DNA Released ([21]; 35° C. 20 minutes): 38.6%
- % DNA Released ([21]; 70° C. 20 minutes): 117.8%
- % DNA Released ([21]; 80° C. 20 minutes): 98.2%
- Ct values ([22]; 35° C. 20 minutes): 15.5
- Ct values ([22]; 70° C. 20 minutes): 12.0
- Ct values ([22]; 80° C. 20 minutes): 11.4
- % DNA Released ([23]; 35° C. 20 minutes): 65.3%
- % DNA Released ([23]; 70° C. 20 minutes): 89.4%
- % DNA Released ([23]; 80° C. 20 minutes): 92.0%
- % DNA Released ([24]; 35° C. 20 minutes): 52.1%
- % DNA Released ([24]; 70° C. 20 minutes): 80.8%
- % DNA Released ([24]; 80° C. 20 minutes): 89.5%
- quantity of full-length purified RNase protein [25]: decreased
- % DNA Released ([26]; 35° C. 20 minutes): 18.4%
- % DNA Released ([26]; 70° C. 20 minutes): 24.8%
- % DNA Released ([26]; 80° C. 20 minutes): 26.7%
- spore viability by culture [27]: no C. botulinum or C. difficile spores were viable by culture
- Real-time PCR Ct value (in duplicate) [28]: 32/32 and 41/33 and 23/23 and 33/33 and 19/19 and 24/25
- % DNA release [2]: 46.6% and 48.0% and 37.4%
- AUC, Ade [2]: 594 and 611 and 476
- % DNA release (Average) [2]: 44.0%
- AUC, Ade (Average) [2]: 560.3
- % DNA release (Average) ([2]; listed as sodium (meta)periodate): 44%
- Ct values ([29]; 35° C. 20 minutes): 10.8
- Ct values ([29]; 70° C. 20 minutes): 7.8
- Ct values ([29]; 80° C. 20 minutes): 8.8
- Ct values ([30]; 35° C. 20 minutes): 15.3
- Ct values ([30]; 70° C. 20 minutes): 15.5
- Ct values ([30]; 80° C. 20 minutes): 16.0
